Measured values from the NIST ThermoML archive (doi:10.1016/j.fluid.2010.08.004).
Numbers after ± are expanded uncertainties.

Assay: mn = molality of the nth substance listed, in mol/kg
Conditions: 101.3 kPa, Liquid; for speed of sound: Single path-length method; for mass density: Vibrating tube method

CCCCCCCn1cc[n+](C)c1.[Br-] [1-heptyl-3-methylimidazolium bromide] + O
Conditions	mass density, 288.15 K [kg/m3]	mass density, 293.15 K [kg/m3]	mass density, 298.15 K [kg/m3]	mass density, 303.15 K [kg/m3]	mass density, 308.15 K [kg/m3]	speed of sound, 288.15 K [m/s]	speed of sound, 293.15 K [m/s]	speed of sound, 298.15 K [m/s]	speed of sound, 303.15 K [m/s]	speed of sound, 308.15 K [m/s]
m1 = 0.0096	999.568 ± 0.041	998.662 ± 0.045	997.491 ± 0.044	996.083 ± 0.044	994.457 ± 0.042	1468.2 ± 0.45	1484.2 ± 0.46	1498.3 ± 0.46	1510.5 ± 0.46	1521.1 ± 0.45
m1 = 0.0113	999.656 ± 0.041	998.746 ± 0.041	997.574 ± 0.041	996.165 ± 0.042	994.539 ± 0.042	1468.5 ± 0.45	1484.4 ± 0.45	1498.5 ± 0.45	1510.8 ± 0.45	1521.3 ± 0.45
m1 = 0.0151	999.839 ± 0.041	998.926 ± 0.041	997.75 ± 0.041	996.337 ± 0.042	994.708 ± 0.042	1469.1 ± 0.45	1485 ± 0.45	1499 ± 0.45	1511.2 ± 0.45	1521.7 ± 0.45
m1 = 0.0226	1000.2 ± 0.041	999.279 ± 0.041	998.097 ± 0.041	996.677 ± 0.042	995.043 ± 0.042	1470.4 ± 0.45	1486.1 ± 0.45	1500.1 ± 0.45	1512.2 ± 0.45	1522.6 ± 0.45
m1 = 0.0306	1000.59 ± 0.041	999.656 ± 0.041	998.464 ± 0.042	997.04 ± 0.042	995.398 ± 0.043	1471.8 ± 0.46	1487.3 ± 0.45	1501.2 ± 0.45	1513.1 ± 0.45	1523.5 ± 0.45
m1 = 0.0384	1000.96 ± 0.042	1000.03 ± 0.041	998.827 ± 0.042	997.395 ± 0.042	995.747 ± 0.043	1472.9 ± 0.46	1488.5 ± 0.46	1502.2 ± 0.46	1514.1 ± 0.46	1524.4 ± 0.46
m1 = 0.0571	1001.85 ± 0.043	1000.9 ± 0.042	999.682 ± 0.042	998.23 ± 0.043	996.569 ± 0.043	1476.1 ± 0.46	1491.2 ± 0.46	1504.7 ± 0.46	1516.3 ± 0.46	1526.4 ± 0.46
m1 = 0.0778	1002.84 ± 0.044	1001.86 ± 0.044	1000.62 ± 0.043	999.158 ± 0.043	997.477 ± 0.044	1479.3 ± 0.47	1494.3 ± 0.47	1507.5 ± 0.47	1518.9 ± 0.47	1528.6 ± 0.46
m1 = 0.097	1003.74 ± 0.045	1002.74 ± 0.045	1001.49 ± 0.044	1000.01 ± 0.044	998.309 ± 0.044	1482.3 ± 0.47	1497 ± 0.47	1509.9 ± 0.47	1521.1 ± 0.47	1530.7 ± 0.47
m1 = 0.1158	1004.62 ± 0.046	1003.6 ± 0.046	1002.33 ± 0.045	1000.83 ± 0.045	999.119 ± 0.045	1485.2 ± 0.47	1499.7 ± 0.47	1512.3 ± 0.47	1523.3 ± 0.47	1532.6 ± 0.47
m1 = 0.1383	1005.67 ± 0.048	1004.63 ± 0.047	1003.34 ± 0.047	1001.81 ± 0.046	1000.08 ± 0.045	1488.7 ± 0.48	1502.8 ± 0.48	1515.2 ± 0.48	1525.8 ± 0.48	1534.9 ± 0.48
m1 = 0.1566	1006.51 ± 0.049	1005.45 ± 0.048	1004.14 ± 0.048	1002.6 ± 0.047	1000.86 ± 0.046	1491.5 ± 0.48	1505.3 ± 0.48	1517.4 ± 0.48	1527.9 ± 0.48	1536.7 ± 0.48
m1 = 0.174	1007.32 ± 0.05	1006.24 ± 0.049	1004.91 ± 0.049	1003.35 ± 0.048	1001.6 ± 0.048	1494 ± 0.49	1507.6 ± 0.49	1519.5 ± 0.49	1529.8 ± 0.49	1538.4 ± 0.49
